Our source for the IC50, CC50 and EC50 values is ChEMBL document CHEMBL5241090, “A comprehensive overview of β-carbolines and its derivatives as anticancer agents” (Eur J Med Chem, 2021).

One assay concerns COLO 205. In words: Cytotoxicity against human COLO 205 cells measured after 24 hrs by MTT assay. The class given is functional, cell-based. The following applies: COLO 205, 24 h. (Tetrazolium assays rely on reduction of a dye to a coloured formazan, in cell work by metabolically active cells.)
The subject of assay [1] is A549. In words: Cytotoxicity against human A549 cells measured after 24 hrs by MTT assay. The class given is functional, cell-based. The following applies: A549, 24 h.
For assay [2], the system named is MCF7. In words: Cytotoxicity against human MCF7 cells measured after 24 hrs by MTT assay. The class given is functional, cell-based. The following applies: MCF7, 24 h.
For another assay, the system named is A2780. In words: Cytotoxicity against human A2780 cells measured after 24 hrs by MTT assay. The class given is functional, cell-based. The following applies: A2780, 24 h.
Assay [3] addresses T1, Kinesin-like protein KIF11 (Homo sapiens, UniProt P52732).
T1 sequence (P52732 whole entry): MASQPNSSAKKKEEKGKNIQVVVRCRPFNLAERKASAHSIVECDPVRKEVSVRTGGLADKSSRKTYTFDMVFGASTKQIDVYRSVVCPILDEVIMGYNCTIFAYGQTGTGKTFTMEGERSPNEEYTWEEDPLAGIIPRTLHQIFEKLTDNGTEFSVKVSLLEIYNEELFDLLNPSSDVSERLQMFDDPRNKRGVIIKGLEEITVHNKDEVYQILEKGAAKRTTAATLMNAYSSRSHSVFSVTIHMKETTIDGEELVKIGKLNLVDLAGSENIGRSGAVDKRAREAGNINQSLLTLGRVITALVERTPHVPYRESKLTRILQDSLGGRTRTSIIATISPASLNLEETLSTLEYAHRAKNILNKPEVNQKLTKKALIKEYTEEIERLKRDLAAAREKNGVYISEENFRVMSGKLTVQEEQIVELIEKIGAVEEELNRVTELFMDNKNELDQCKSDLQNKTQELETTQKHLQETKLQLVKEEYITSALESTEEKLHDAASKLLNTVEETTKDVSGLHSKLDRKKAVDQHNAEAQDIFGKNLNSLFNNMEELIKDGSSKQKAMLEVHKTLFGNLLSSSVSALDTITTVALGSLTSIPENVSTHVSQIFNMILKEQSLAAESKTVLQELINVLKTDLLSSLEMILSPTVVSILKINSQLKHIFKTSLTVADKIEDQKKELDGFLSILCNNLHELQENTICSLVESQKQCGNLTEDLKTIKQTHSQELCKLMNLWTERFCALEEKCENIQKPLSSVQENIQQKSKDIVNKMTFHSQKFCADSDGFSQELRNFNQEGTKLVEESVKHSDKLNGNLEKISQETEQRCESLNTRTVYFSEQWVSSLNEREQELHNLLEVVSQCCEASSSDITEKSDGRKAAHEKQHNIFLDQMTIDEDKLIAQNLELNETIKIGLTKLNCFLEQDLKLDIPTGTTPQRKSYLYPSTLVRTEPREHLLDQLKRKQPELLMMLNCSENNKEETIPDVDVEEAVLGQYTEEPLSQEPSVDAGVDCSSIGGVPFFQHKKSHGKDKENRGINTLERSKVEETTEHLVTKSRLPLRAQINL
Briefly: Inhibition of KSP (unknown origin).

The target in a further assay is T2, DNA topoisomerase 1 (Homo sapiens, UniProt P11387).
T2 sequence (P11387 whole entry): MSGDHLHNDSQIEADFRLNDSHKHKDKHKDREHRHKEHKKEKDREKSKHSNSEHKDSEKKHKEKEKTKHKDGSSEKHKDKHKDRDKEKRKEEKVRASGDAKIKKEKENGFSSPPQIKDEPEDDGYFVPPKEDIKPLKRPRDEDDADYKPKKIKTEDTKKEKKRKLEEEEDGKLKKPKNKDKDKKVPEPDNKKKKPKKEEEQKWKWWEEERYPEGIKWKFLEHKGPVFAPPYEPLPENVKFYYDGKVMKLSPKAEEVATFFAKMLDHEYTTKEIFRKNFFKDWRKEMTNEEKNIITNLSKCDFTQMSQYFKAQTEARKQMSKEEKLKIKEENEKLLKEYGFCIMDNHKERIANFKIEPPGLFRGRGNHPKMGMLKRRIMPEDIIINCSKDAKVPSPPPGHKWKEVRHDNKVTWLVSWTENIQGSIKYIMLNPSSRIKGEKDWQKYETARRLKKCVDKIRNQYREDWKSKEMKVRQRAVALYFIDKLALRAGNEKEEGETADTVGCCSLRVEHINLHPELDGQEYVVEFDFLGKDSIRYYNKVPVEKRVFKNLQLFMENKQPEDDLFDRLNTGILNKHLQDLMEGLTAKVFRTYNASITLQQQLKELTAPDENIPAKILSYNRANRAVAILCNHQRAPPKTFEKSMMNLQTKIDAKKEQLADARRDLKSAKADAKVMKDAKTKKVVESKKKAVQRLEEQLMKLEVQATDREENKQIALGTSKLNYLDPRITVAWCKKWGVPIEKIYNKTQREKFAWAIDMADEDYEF
In words: Inhibition of Topoisomerase 1 (unknown origin).

Another assay concerns SMMC-7721. Briefly: Cytotoxicity against human SMMC-7721 cells measured after 48 hrs by MTT assay. The following applies: SMMC-7721, 48 h. The class given is functional, cell-based.
Assay [4] deals with A549. In words: Cytotoxicity against human A549 cells measured after 48 hrs by MTT assay. Format: functional, cell-based. The following applies: A549, 48 h.
The subject of another assay is HeLa. In words: Cytotoxicity against human HeLa cells measured after 48 hrs by MTT assay. Format: functional, cell-based.
Another assay deals with SGC-7901. In words: Cytotoxicity against human SGC-7901 cells measured after 48 hrs by MTT assay. The class given is functional, cell-based. The following applies: SGC-7901, 48 h.
In assay [5] the test system is MCF7. In words: Cytotoxicity against human MCF7 cells by MTT assay. Format: functional, cell-based.
The subject of another assay is TERT-RPE1. In words: Cytotoxicity against human TERT-RPE1 cells. Format: functional, cell-based. The following applies: RPE-1.
The subject of the next assay is Col2. In words: Cytotoxicity against human Col2 cells. The class given is functional, cell-based.
The next assay concerns HUVEC. In words: Cytotoxicity against human HUVEC cells. The class given is functional, cell-based.
Assay [6] in a line: Cytotoxicity against human Lu1 cells. Format: functional, cell-based.
The subject of the next assay is LNCaP. Briefly: Cytotoxicity against human LNCaP cells. Format: functional, cell-based.
In the next assay the test system is HT-1080. In words: Cytotoxicity against human HT-1080 cells. The class given is functional, cell-based.
For the next assay, the system named is HepG2. Briefly: Cytotoxicity against human HepG2 cells. The class given is functional, cell-based. The following applies: read-out: TC50 (the source's name).
In assay [7] the test system is OVCAR-3. Briefly: Cytotoxicity against human OVCAR-3 cells by MTT assay. The class given is functional, cell-based.
The next assay has as its system HCT-116. Briefly: Cytotoxicity against human HCT-116 cells by MTT assay. Format: functional, cell-based.
In another assay the test system is KB. Briefly: Cytotoxicity against human KB cells assessed as inhibition of growth measured after 1 day by hemacytometer. The class given is functional. The following applies: 24 h, read-out: ED50 (the source's name).
Assay [8] concerns OVCAR-3. Briefly: Cytotoxicity against human OVCAR-3 cells. The class given is functional, cell-based.
The test system of assay [9] is A549. In words: Cytotoxicity against human A549 cells. Format: functional, cell-based.
The test system of assay [10] is MCF7. Briefly: Cytotoxicity against human MCF7 cells. The class given is functional, cell-based.
In the next assay the test system is NCI-H187. In words: Cytotoxicity against human NCI-H187 cells. The class given is functional, cell-based.

Values after ≈ are worked out from the molar mass of the structure shown.

As a reminder, the IC50 is the concentration at which inhibition is half-maximal. With `COc1ccc(C(=O)n2c3ccccc3c3ccnc(-c4cc(-c5ccc(-c6nc7ccccc7s6)cc5)no4)c32)c(OC)c1OC`, the IC50 with COLO 205 is 0.64 µM; in the assay on A549 [1] it was 0.14 µM; with MCF7 [2], 0.1 µM; with A2780, 0.19 µM.

In the case of `O=C(NNC(=S)Nc1ccc(Br)cc1)c1cc2c([nH]c3ccccc32)c(-c2cccc(O)c2)n1`, the figures for the concentration for half-maximal inhibition (IC50) (in assay [3]; on DNA topoisomerase 1) were 13.4 µM and 5.8 µM, respectively.

`Cc1ccccc1Cn1c2ccccc2c2cc(C(=O)OCCCCCOC(=O)c3cc4c5ccccc5n(Cc5ccccc5C)c4cn3)ncc21`: the IC50 with SMMC-7721, in the assay with A549 [4], in the assay with HeLa and in the assay on SGC-7901 was 6.93 µM throughout.

As for `COc1ccc2c3ccnc(C)c3n(CC3CC(c4ccccc4)=NO3)c2c1` (configuration not stated), the IC50 in the assay on MCF7 [5] is 0.8 µM.

Consider `COc1cc2c3ccccc3n3c(=O)ccc(n1)c23`, for which the half-inhibitory concentration (IC50) (in the assay with TERT-RPE1; in the assay with Col2; with HUVEC; in assay [6]; in the assay with LNCaP) was 0.503 µM each time.

`COc1c(O)ccc2c1c1ccnc3ccc(=O)n2c31` gave an IC50 with HT-1080 of 7.2 µM.

Regarding `O=C(O)[C@@H](O)Cc1nccc2c1[nH]c1ccccc12`, in the assay with HepG2, the CC50 is greater than 50 µM.

Regarding `COc1ccc2c3ccnc(C)c3n(CC(=O)N/N=C/c3ccc(C(C)(C)C)cc3)c2c1`, the results for the IC50 with MCF7 [5], in the assay on OVCAR-3 [7] and in the assay on HCT-116 were 4 µM, 2.5 µM and 5 µM, respectively.

Consider `CSc1nnc(-c2cc3c([nH]c4ccccc43)c(-c3cccc(O)c3)n2)o1`, for which the results for the IC50 (in [3]; at DNA topoisomerase 1) were 8.73 µM and 7.8 µM, respectively.

Turning to `COc1cccc2c1c1c(O)cnc3ccc(=O)n2c31`, in the assay on KB, the EC50 worked out at 2 µg/mL (≈ 7.51 µM).

Take `CNCC(O)c1ccc(O)c(C2(O)c3ccccc3-[n+]3ccc4c([nH]c5ccccc54)c32)c1` (configuration not stated): the concentration for half-maximal inhibition (IC50) in the assay on OVCAR-3 [8], in the assay with A549 [9] and with MCF7 [10] was 27 µg/mL each time.

`COc1ccc2c3ccnc4c(OC)cc(=O)n(c2c1)c43` had an IC50 in the assay with HT-1080 of 5 µM.

In the assay with NCI-H187, `COC(=O)c1cc2c([nH]c3ccccc32)c([C@H](C)O)n1` showed an IC50 of 75.1 µM.

As to `COc1cnc2ccc(=O)n3c4cccc(O)c4c1c23`, the EC50 with KB was found to be 2 µg/mL (≈ 7.51 µM).

In the case of `O=C(O)[C@H](O)Cc1nccc2c1[nH]c1ccccc12`, in the assay with HepG2, the CC50 stood at 39 µM.

Consider `c1ccc2c(c1)[nH]c1cnccc12` [NORHARMANE], for which half-maximal inhibition against DNA topoisomerase 1 (IC50) was put at 31 µM.
